Experimental data as given in patent publication US7186879B2, “Screening systems and methods for identifying modulators of xenobiotic metabolism” (Baylor College of Medicine, priority 2001, dated 2007).
“Also recorded” adds a separate entry of the source.

Assays:
hepatocytes = assay: Hepatocyte proliferation (BrdU incorporation); format: in vivo, mouse; conditions: wild-type animals
Protocol: FIG. 3B is a set of pictures of PB-treated, TCPOBOP-treated, or control mice that were treated with BrdU for two hours before their liver tissues were harvested.
To determine the proliferation of hepatocytes following PB or TCPOBOP treatment, mice pretreated with corn oil, PB, or TCPOBOP received a single intraperitoneal dose of BrdU/FdU (2 ml/100 g, Amersham). Mice were sacrificed approximately 2 hours after BrdU administration. BrdU incorporation was determined using a mouse anti-BrdU monoclonal antibody (DAKO Corporation) and Vectastain ABC Kit (Vector Laboratories Inc.) (FIG. 3B), using standard procedures.

[1] = system: wild-type and CAR −/− mice; assay: Cocaine-mediated hepatotoxicity, serum ALT; conditions: for evidence of liver damage after cocaine: CAR −/− animals; for serum ALT as acute response to cocaine: male wild-type mice pretreated three days, cocaine 30 mg/kg
Protocol: FIG. 4 is a bar graph showing the effect of PB or TCPOBOP on cocaine-mediated hepatotoxicity, measured as serum alanine aminotransferase (ALT) activity. Male mice were pretreated with PB or TCPOBOP for three days. Twenty-four hours after the last dose, one injection of cocaine was given to the animals. Blood was drawn 20 hours after cocaine treatment for determination of serum ALT activity.
Blood was drawn from the eye for determination of serum ALT activity.

hepatic GSH = assay: Hepatic GSH content (non-protein thiol); format: in vivo, mouse; conditions: for hepatic GSH levels versus vehicle CAR (+/+) and pretreated CAR (−/−) animals: pretreated wild-type animals, two hours after APAP; for decrease in hepatic GSH: pretreated wild-type mice, two hours after APAP 250 mg/kg
Protocol: CAR (+/+) or CAR (−/−) animals pretreated with phenobarbital (PB), TCPOBOP (TC), or vehicle alone were administered a 250 mg/kg dose of APAP by intraperitoneal injection (n=5–7 per treatment group) (FIG. 11A). Serum was collected and alanine aminotransferase (ALT) levels were measured after 24 hours. Liver sections from different treatments were examined by histological staining (FIG. 11B). Liver samples from all treated animals were analyzed but only representative histology is presented. […] CAR (+/+) or CAR (−/−) animals were pretreated with PB, TCPOBOP (TC), or vehicle alone for three days (FIG. 11C). […] Liver samples treated as indicated were collected two hours after APAP and GSH levels were measured (n=5–7) (FIG. 11D).
FIG. 15A is a picture of the histological staining of liver sections after two hours of 500 mg/kg APAP treatment. Liver sections from animals injected with 500 mg/kg APAP for 0 or 2 hours were stained with hematoxylin and eosin. Arrows indicate initial stages of necrosis surrounding central veins. The same liver samples were collected and GSH levels were measured at 0 and 2 hours as indicated. FIG. 15B is a graph of these GSH levels.
For histologic examination of the treated mice, the left lobe of the livers was removed and immediately fixed in 4% formaldehyde-PBS solution, embedded in paraffin, sectioned at 5 μm, and stained with hematoxylin and eosin. Samples were examined under a light microscope. For RNA studies, total RNA was extracted using TRIzol Reagent (Invitrogen Life Technologies, Carlsbad, Calif.) according to the manufacture's instruction. Equivalent amount of RNA from 3–5 mice were pooled and 10 μg of each sample was subjected to northern blot analysis. […] Preparation of probes for CYP2B10 and CYP3A11 were described as previously (Wei et al., Nature 407:920–923, 2000 and Zelko et al., Mol Cell Biol 21:2838–2846, 2001). PCR primers used were: CYP1A2: 5′-[…]-3′ (SEQ ID NO: 19) and 5′-[…]-3′ (SEQ ID NO: 20), CYP2E1: 5′-[…]-3′ (SEQ ID NO: 21) and 5′-[…]-3′ (SEQ ID NO: 22), GSTPi: 5′-[…]-3′ (SEQ ID NO: 23) and 5′-[…]-3′ (SEQ ID NO: 24). Hepatic non-protein thiol was measured as an indication of hepatic GSH content. Mice were sacrificed two hours after intraperitoneal injection with APAP. Livers were removed and immediately homogenized in four volumes of 5% trichloroacetic acid and then centrifuged at 1,600×g for 15 minutes. Supernatant (0.5 ml) was mixed with 1.5 ml 0.1 mM Ellman's reagent [5,5′-dithio-bis(2-nitrobenzoic acid)] (Sigma, St Louis, Mo.) and allowed to stand at room temperature for 15 minutes. Absorbance was read at 412 nm using GSH solutions as quantitative standards.

murine CAR = molecular target: T1, murine CAR (Mus musculus, UniProt O35627); conditions: mice expressing only murine CAR (heterozygous, no transgene), 24 hours
T1 sequence (O35627 1-358): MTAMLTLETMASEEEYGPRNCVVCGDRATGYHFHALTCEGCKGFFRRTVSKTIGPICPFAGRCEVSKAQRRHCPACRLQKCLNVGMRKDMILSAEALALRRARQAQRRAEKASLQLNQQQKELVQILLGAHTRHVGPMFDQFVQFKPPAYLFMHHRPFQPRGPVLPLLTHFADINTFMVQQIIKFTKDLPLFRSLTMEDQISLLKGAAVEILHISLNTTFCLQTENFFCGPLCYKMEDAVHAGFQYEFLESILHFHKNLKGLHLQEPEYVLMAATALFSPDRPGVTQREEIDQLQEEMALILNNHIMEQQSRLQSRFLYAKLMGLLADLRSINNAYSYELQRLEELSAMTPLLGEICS
Protocol: (§1) Total RNA was prepared from the livers of the individual mice, and CYP2B10 mRNA expression was assessed by Northern blotting.
(§2) Mice heterozygous for the murine CAR gene mutation and lacking the human CAR transgene express only murine CAR. […] Mice homozygous for the murine CAR gene mutation and carrying the human CAR transgene express only human CAR in the liver.

CYP3A11 = assay: Northern blot of CYP3A11 mRNA in liver; conditions: for induction of CYP311: CAR −/− mice; for induction of murine CYP3A11 mRNA: wild-type mice
Protocol: (§3) At least three mice between about 8–10 weeks old were used for each treatment. Mice were pretreated by intraperitoneal injection with corn oil, PB (100 mg/kg, Sigma), or TCBOPOP (3 mg/kg) for the indicated time. For a three day PB treatment, mice were injected intraperitoneally three times with PB, at one injection per day.

human CAR = molecular target: T2, human CAR (Homo sapiens, UniProt Q14994); assay: CYP2B10 mRNA induction in humanized CAR mice lacking murine CAR; conditions: mice expressing only human CAR in liver, 24 hours
T2 sequence (Q14994 1-348 isoform Q14994-2): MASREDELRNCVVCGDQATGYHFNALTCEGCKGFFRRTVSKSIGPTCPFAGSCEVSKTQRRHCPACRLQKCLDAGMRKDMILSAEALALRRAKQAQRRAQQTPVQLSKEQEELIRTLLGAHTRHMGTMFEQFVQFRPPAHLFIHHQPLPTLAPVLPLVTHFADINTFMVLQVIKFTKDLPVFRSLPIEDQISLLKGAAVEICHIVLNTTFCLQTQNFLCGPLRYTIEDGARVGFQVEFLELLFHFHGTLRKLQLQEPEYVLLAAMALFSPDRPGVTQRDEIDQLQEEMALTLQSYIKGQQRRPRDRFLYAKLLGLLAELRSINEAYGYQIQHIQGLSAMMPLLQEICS
Protocol: as §1, §2

CYP2B10 = assay: Northern blot of CYP2B10 mRNA in liver of wild-type and CAR knockout mice
Protocol: as §3
Approximately 20 μg of total RNA from individual mouse livers was subjected to Northern blot analysis (FIG. 1C). A mouse CAR cDNA probe was used to reveal the absence of CAR transcripts in the CAR null mice. Probes for CYP2B10 were prepared by RT-PCR with mouse liver total RNA using Superscript One-step RT-PCR System (Life Technologies).

SMILES | BrdU-positive hepatocytes (hepatocytes) | evidence of liver damage after cocaine [1] | serum ALT as acute response to cocaine [1] | hepatic GSH levels versus vehicle CAR (+/+) and pretreated CAR (−/−) animals (hepatic GSH) | decrease in hepatic GSH (hepatic GSH) | induction of CYP2B10 mRNA (murine CAR) | induction of CYP311 (CYP3A11) | induction of murine CYP3A11 mRNA (CYP3A11) | induction of CYP2B10 mRNA (human CAR) | induction of expression of CYP2B10 mRNA (CYP2B10; CAR knockout animals) | induction of expression of CYP2B10 mRNA (CYP2B10; wild-type male or female mice)
Clc1cnc(Oc2ccc(Oc3ncc(Cl)cc3Cl)cc2)c(Cl)c1 [TCPOBOP, 1,4-bis[2-(3,5-dichloropyridyloxy)]benzene] | presence of BrdU-positive hepatocytes | not observed | significant increase | significantly different | approximately 50% | induction of CYP2B10 mRNA | negligible level of induction | substantial induction | did not respond; also recorded: not by TCPOBOP | absent | robust induction
CCC1(c2ccccc2)C(=O)NC(=O)NC1=O [PB, phenobarbital] | presence of BrdU-positive hepatocytes | not observed | significant increase | significantly different | approximately 50% | induction of CYP2B10 mRNA | negligible level of induction | substantial induction | induction of CYP2B10 mRNA; also recorded: induces a CAR target gene | absent | robust induction
